In PMC12137875 (Nature Communications, 2025):
Read-outs that look alike come from different tables or passages of the source.

Columns and labels:
[1] = test system: URAT1CS; assay type: cell-based; settings: HEK293T cells expressing hURAT1 versus URAT1CS
[2] = biological target: T1, hURAT1 (Homo sapiens, UniProt Q96S37); assay type: cell-based; settings: for KT urate / Vmax: fit of the data set with this inhibitor, 95% CI; for Mode of inhibition of [14C]-urate uptake: competitive versus non-competitive fits
T1 sequence (Q96S37 1-553): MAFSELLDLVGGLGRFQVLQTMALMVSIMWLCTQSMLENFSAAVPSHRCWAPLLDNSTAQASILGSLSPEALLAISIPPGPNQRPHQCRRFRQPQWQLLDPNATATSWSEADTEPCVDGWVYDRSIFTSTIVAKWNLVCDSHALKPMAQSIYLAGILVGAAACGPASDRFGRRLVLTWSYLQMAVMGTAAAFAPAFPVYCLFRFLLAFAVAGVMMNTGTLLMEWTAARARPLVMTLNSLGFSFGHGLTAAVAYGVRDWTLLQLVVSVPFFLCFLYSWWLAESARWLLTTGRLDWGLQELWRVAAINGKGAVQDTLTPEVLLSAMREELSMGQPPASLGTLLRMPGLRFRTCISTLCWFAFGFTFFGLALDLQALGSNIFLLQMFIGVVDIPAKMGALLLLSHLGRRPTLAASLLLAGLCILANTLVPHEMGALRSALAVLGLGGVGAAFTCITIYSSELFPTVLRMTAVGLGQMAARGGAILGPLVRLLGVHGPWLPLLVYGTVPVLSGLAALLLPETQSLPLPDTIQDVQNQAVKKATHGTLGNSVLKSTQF

Row | Compound | Inhibitor binding to URAT1CS as judged from IC50 [1] | KT urate ([2]; Competitive model) | Vmax ([2]; Competitive model) | KT urate ([2]; Non-competitive model) | Vmax ([2]; Non-competitive model) | Mode of inhibition of [14C]-urate uptake [2]
1 | CCc1oc2ccccc2c1C(=O)c1cc(Br)c(O)c(Br)c1 [BBR, benzbromarone] | high affinity | 26.08 [11.29–48.59] µM | 1591 [1355–1846] pmol min^−1 mg^−1 | 32.4 [20.7–47.9] µM | 1700 [1530–1881] pmol min^−1 mg^−1 | non-competitively
2 | O=C(O)CSc1nnc(Br)n1-c1ccc(C2CC2)c2ccccc12 [LESU, lesinurad] |  | 162.8 [126.4–210.1] µM | 3625 [3335–3955] pmol min^−1 mg^−1 | 175.1 [148.8–206.5] µM | 3725 [3522–3947] pmol min^−1 mg^−1 | non-competitively
